Data taken from patent US20010044463A1, “Methods for controlling gram negative bacteria in mammals” (priority 1997, published 2001).

Legend:
Staph ATCC 14775 = test: Blood agar plate growth inhibition, control organism; type: cell-based; conditions: Table XV, Non microaerophilic conditions
Procedure: (§1) Monensin (Sigma Cat. No. M-5273) was dissolved in 100% absolute ethanol (AAPER Alcohol and Chemical Co.) at a concentration of 20 mg/ml. Subsequent dilutions were made in ethanol immediately prior to use. Nigericin (Sigma Cat. No. N-7143) was dissolved in DMSO at 2 mg/ml. Subsequent dilutions were made in BHI medium (Brain heart infusion broth, Difco #0037-07-0) immediately prior to use.
(§2) Blood agar base (BAB) was prepared containing 1.5% agar and autoclaved. 20 ml samples of autoclaved BAB were poured into 50 mL tubes and placed in a 56° C. water bath.
(§3) 100 μl of a drug (final concentration equivalent to 1:200 of original concentration) and 1.2 ml of sheep blood (Colorado Senun Company # CS-1112) (blood diluted in a 1:1 buffer providing a 3% concentration of blood per 20 ml medium sample) were added to 20 ml sample of media and mixed. The mixed media preparation was poured into a petri dished and allowed to solidify.
Prior to inoculation of petri plates, bacteria or cultures were examined for morphology under a phase microscope to confirm motility and physical characteristics, e.g., spiral shaped. The organisms were washed off the plate into PBS (Phosphate buffered saline) (80.0 g NaCl, 2.0 g KCl, 2.4 g KH2PO4 11.5 g Na2HPO4 or 24.4 g Na2HPO4/2H2O per 1 liter deionized water, pH 7.2, sterilized by autoclaving) and diluted into BHI at a concentration of 10^8/ml (O.D. of 0.3 units diluted 1:30). Ten microliters of solution containing 10^6 organisms were spread onto a petri plate and grown under microaerophilic conditions for 3 days unless specified. […]
(§4) Inhibition of growth was determined by the amount of colonies present within the petri plate. The following factors were used for growth inhibition: ±=0-20 colonies, +=20-50 colonies, ++=50-200 colonies and +++=200+ colonies.

H. pylori ATCC 43504 = test: Minimum Inhibitory Concentration (MIC) blood agar plate growth inhibition; type: cell-based, Helicobacter pylori
Procedure: Subsequent dilutions were made in ethanol immediately prior to use. […] Subsequent dilutions were made in BHI medium (Brain heart infusion broth, Difco #0037-07-0) immediately prior to use.
as §2
The mixed media preparation was poured into a petri dished and allowed to solidify.
(§5) Prior to inoculation of petri plates, bacteria or cultures were examined for morphology under a phase microscope to confirm motility and physical characteristics, e.g., spiral shaped. The organisms were washed off the plate into PBS (Phosphate buffered saline) (80.0 g NaCl, 2.0 g KCl, 2.4 g KH2PO4 11.5 g Na2HPO4 or 24.4 g Na2HPO4/2H2O per 1 liter deionized water, pH 7.2, sterilized by autoclaving) and diluted into BHI at a concentration of 10^8/ml (O.D. of 0.3 units diluted 1:30). Ten microliters of solution containing 10^6 organisms were spread onto a petri plate and grown under microaerophilic conditions for 3 days unless specified. Control organisms were grown under microaerophilic conditions.
as §4

[1] = test system: H. pylori (urease positive) ATCC Number 51652; test: as above; type: cell-based, Helicobacter pylori; conditions: Table XVII, Blood agar base + 3% sheep blood
Procedure: as §1, §2, §3, §5, §4

[2] = final drug concentration 10 ng/ml
[3] = final drug concentration 100 ng/ml
[4] = final drug concentration 1 μg/ml
[5] = final drug concentration 10 μg/ml
[6] = final drug concentration 0.1 ng/ml
[7] = final drug concentration 1 ng/ml
[8] = Tables IX-XIII, final drug concentration 0.098 μg/ml
[9] = Tables IX-XIII, final drug concentration 0.195 μg/ml
[10] = Tables IX-XIII, final drug concentration 0.39 μg/ml
[11] = Tables IX-XIII, final drug concentration 0.78 μg/ml
[12] = Tables IX-XIII, final drug concentration 1.56 μg/ml
[13] = Tables IX-XIII, final drug concentration 3.125 μg/ml
[14] = Tables IX-XIII, final drug concentration 6.25 μg/ml
[15] = Tables IX-XIII, final drug concentration 12.5 μg/ml
[16] = Tables IX-XIII, final drug concentration 25 μg/ml
[17] = Tables IX-XIII, final drug concentration 50 μg/ml
[18] = Tables IX-XIII, final drug concentration 100 μg/ml

| Compound | growth (amount of colonies present within the petri plate) [1, 6] | growth (amount of colonies present within the petri plate) [1, 7] | growth (amount of colonies present within the petri plate) [1, 2] | growth (amount of colonies present within the petri plate) [1, 3] | growth (amount of colonies present within the petri plate) [1, 4] | growth (amount of colonies present within the petri plate) [1, 5] | MIC (H. pylori ATCC 43504; Tables IX-XIII) | growth (amount of colonies present within the petri plate) (H. pylori ATCC 43504; [8]) | growth (amount of colonies present within the petri plate) (H. pylori ATCC 43504; [9]) | growth (amount of colonies present within the petri plate) (H. pylori ATCC 43504; [10]) | growth (amount of colonies present within the petri plate) (H. pylori ATCC 43504; [11]) | growth (amount of colonies present within the petri plate) (H. pylori ATCC 43504; [12]) | growth (amount of colonies present within the petri plate) (H. pylori ATCC 43504; [13]) | growth (amount of colonies present within the petri plate) (H. pylori ATCC 43504; [14]) | growth (amount of colonies present within the petri plate) (H. pylori ATCC 43504; [15]) | growth (amount of colonies present within the petri plate) (H. pylori ATCC 43504; [16]) | growth (amount of colonies present within the petri plate) (H. pylori ATCC 43504; [17]) | growth (amount of colonies present within the petri plate) (H. pylori ATCC 43504; [18]) | other results |
| --- | --- | --- | --- | --- | --- | --- | --- | --- | --- | --- | --- | --- | --- | --- | --- | --- | --- | --- | --- |
| CC[C@@H](C(=O)[C@@H](C)[C@@H](O)[C@H](C)CCc1ccc(C)c(O)c1C(=O)O)[C@H]1O[C@](CC)([C@H]2CC[C@](O)(CC)[C@H](C)O2)C[C@@H]1C [Lasalocid, lasalocid] | (+++) (+++=200+ colonies) | (+++) (+++=200+ colonies) | (+++) (+++=200+ colonies) | (+++) (+++=200+ colonies) | (+++) (+++=200+ colonies) | (+++) (+++=200+ colonies) |  |  |  |  |  |  |  |  |  |  |  |  | growth (amount of colonies present within the petri plate) (Staph ATCC 14775; [2]): (+++) (+++=200+ colonies); growth (amount of colonies present within the petri plate) (Staph ATCC 14775; [3]): (+++) (+++=200+ colonies); growth (amount of colonies present within the petri plate) (Staph ATCC 14775; [4]): (+++) (+++=200+ colonies); growth (amount of colonies present within the petri plate) (Staph ATCC 14775; [5]): No growth; growth (amount of colonies present within the petri plate) (H. pylori ATCC 43504; Table VII, urease positive, final drug concentration 10 μg/ml): (+++) (+++=200+ colonies) |
| CC[C@@]1([C@@H]2O[C@@H]([C@H]3O[C@@](O)(CO)[C@H](C)C[C@@H]3C)C[C@@H]2C)CC[C@H]([C@]2(C)CC[C@]3(C[C@H](O)[C@@H](C)[C@@H]([C@@H](C)[C@@H](OC)[C@H](C)C(=O)OCc4ccccc4)O3)O2)O1 [Benzyl Monensin, monensin benzyl ester] |  |  |  |  |  |  | MIC = 25 μg/ml | (+++) (+++=200+ colonies) | (+++) (+++=200+ colonies) | (+++) (+++=200+ colonies) | (+++) (+++=200+ colonies) | (+++) (+++=200+ colonies) | (+++) (+++=200+ colonies) | (+++) (+++=200+ colonies) | (++) (++=50-200 colonies) | (±) (±=0-20 colonies) | (±) (±=0-20 colonies) | (±) (±=0-20 colonies) |  |
| C[C@H](CCC(=O)O)C[C@H](C)C[C@H](C)C(=O)/C=C(\O)[C@H](C)C[C@H](C)C/C=C/[C@@H](C)[C@@H](O)[C@@H](C)[C@@H](O)C[C@@H]1CC[C@@](C)([C@H]2CC[C@@](C)([C@@H](C)O)O2)O1 [Ionomycin, ionomycin] | (+++) (+++=200+ colonies) | (+++) (+++=200+ colonies) | (+++) (+++=200+ colonies) | (+++) (+++=200+ colonies) | (+++) (+++=200+ colonies) | (+++) (+++=200+ colonies) |  |  |  |  |  |  |  |  |  |  |  |  |  |
| CCC1(C2OC(C3OC(O)(COC(=O)Nc4cccnc4)C(C)CC3C)CC2C)CCC(C2(C)CCC3(CC(O)C(C)C(C(C)C(OC)C(C)C(=O)O)O3)O2)O1 (centres unmarked) [Monensin pyridyl carbamate, 26-O-(3-pyridylcarbamoyl) monensin] |  |  |  |  |  |  | MIC = 3.12 μg/ml | (+++) (+++=200+ colonies) | (+++) (+++=200+ colonies) | (+++) (+++=200+ colonies) | (+++) (+++=200+ colonies) | (++) (++=50-200 colonies) | (±) (±=0-20 colonies) | No growth | No growth | No growth | No growth | No growth |  |
| 26-O Phenylmonensin [Monensin phenyl carbamate] |  |  |  |  |  |  | MIC = 1.56 μg/ml | (+++) (+++=200+ colonies) | (+++) (+++=200+ colonies) | (++) (++=50-200 colonies) | (++) (++=50-200 colonies) | (+) small colonies (+=20-50 colonies) | (±) few small colonies (±=0-20 colonies) | No growth | No growth | No growth | No growth | No growth |  |
| CCC1(C2OC(C3OC(O)(COC(=O)NC(C)NC(=O)OCC4c5ccccc5-c5ccccc54)C(C)CC3C)CC2C)CCC(C2(C)CCC3(CC(O)C(C)C(C(C)C(OC)C(C)C(=O)O)O3)O2)O1 (centres unmarked) [Fmoc-Ala-monensin, 26-O-[1-(Fmoc-amino)ethylcarbamoyl] monensin] |  |  |  |  |  |  | MIC = 6.25 μg/ml | (+++) (+++=200+ colonies) | (+++) (+++=200+ colonies) | (+++) (+++=200+ colonies) | (+++) (+++=200+ colonies) | (+++) (+++=200+ colonies) | (+++) (+++=200+ colonies) | (±) (±=0-20 colonies) | No growth | No growth | No growth | No growth |  |
| CNc1ccc2oc(C[C@H]3O[C@@]4(CC[C@H]3C)O[C@H]([C@H](C)C(=O)c3ccc[nH]3)[C@H](C)C[C@H]4C)nc2c1C(=O)O [A23187] | (+++) (+++=200+ colonies) | (+++) (+++=200+ colonies) | (+++) (+++=200+ colonies) | (+++) (+++=200+ colonies) | No growth | No growth |  |  |  |  |  |  |  |  |  |  |  |  |  |
